Measurements from publication PMC12510601, “Transcriptomic analysis reveals that pyruvate kinase potentially plays a key role in the differentiation of Spirometra mansoni proglottids by regulating the glycolysis pathway” (PLOS Neglected Tropical Diseases, 2025).

Test system: rSmPK1 (recombinant SmPK1)
Test: […],4-dinitrophenylhydrazine pyruvate assay, Michaelis-Menten / Lineweaver-Burk
Assay type: biochemical, Spirometra mansoni
Settings: pH 8.0, 37 °C

Work on `Nc1ncnc2c1ncn2[C@@H]1O[C@H](COP(=O)(O)OP(=O)(O)O)[C@@H](O)[C@H]1O` [ADP] yielded a Km (varied ADP with PEP) of 540 µM.
For `C=C(OP(=O)(O)O)C(=O)O` [PEP], the Km (varied PEP with ADP) was 1270 µM.
